According to ChEMBL document CHEMBL1157160, “Antioxidant and cytotoxic activities of canadine: biological effects and structural aspects” (Bioorg Med Chem, 2008):
In brackets after ≈: the same amount, converted by molar mass.

Key:
[1] = tested on: HepG2; assay: Cytotoxicity against human HepG2 cells after 24 hrs by MTT assay; assay type: functional, cell-based
[2] = tested on: HeLa; assay: Cytotoxicity against human HeLa cells after 24 hrs by MTT assay; assay type: functional, cell-based
[3] = tested on: Hepatocyte; assay: Cytotoxicity against Sprague-Dawley rat primary hepatocytes after 24 hrs by MTT assay; assay type: cell-based
[4] = tested on: Hepatocyte; assay: Antioxidant effect in Sprague-Dawley rat primary hepatocytes assessed as decrease in tert-butyl hydroperoxide-induced malondialdehyde accumulation administered 50 ug/ml for 7 hrs followed by combined exposure of tert-butyl hydroperoxide and drug for 12 hrs; assay type: functional; design: scale not given: the % may be the effect or the level left
[5] = tested on: Hepatocyte; assay: Cytotoxicity against rat primary hepatocytes at 300 ug/ml after 24 hrs by MTT assay; assay type: cell-based
[6] = tested on: Hepatocyte; assay: Antioxidant effect in Sprague-Dawley rat primary hepatocytes assessed as prevention of tert-butyl hydroperoxide-induced reduction in glutathione content administered 100 ug/ml for 7 hrs followed by combined exposure of tert-butyl hydroperoxide and drug for 12 hrs; assay type: functional; design: scale not given: the % may be the effect or the level left
[7] = tested on: HepG2; assay: Cytotoxicity against human HepG2 cells at 300 ug/ml after 24 hrs by MTT assay; assay type: functional, cell-based
[8] = tested on: Hepatocyte; assay: Antioxidant effect in Sprague-Dawley rat primary hepatocytes assessed as decrease in tert-butyl hydroperoxide-induced malondialdehyde accumulation administered 100 ug/ml for 7 hrs followed by combined exposure of tert-butyl hydroperoxide and drug for 12 hrs; assay type: functional; design: scale not given: the % may be the effect or the level left
[9] = tested on: HeLa; assay: Cytotoxicity against human HeLa cells at 300 ug/ml after 24 hrs by MTT assay; assay type: functional, cell-based
[10] = tested on: Hepatocyte; assay: Antioxidant effect in Sprague-Dawley rat primary hepatocytes assessed as prevention of tert-butyl hydroperoxide-induced reduction in glutathione content administered 50 ug/ml for 7 hrs followed by combined exposure of tert-butyl hydroperoxide and drug for 12 hrs; assay type: functional; design: scale not given: the % may be the effect or the level left
[11] = Homo sapiens, HepG2, 24 h, read-out: IC50
[12] = Homo sapiens, HeLa, 24 h, read-out: IC50

## c1ccc2c(c1)C[C@H]1NCCc3cc4c(c-2c31)OCO4 [ANONAINE]
[1]; [11]
  IC50: 33.5 µg/mL (≈ 126 µM)
[2]; [12]
  IC50: 24.8 µg/mL (≈ 93.5 µM)
[3]
  IC50: 70.3 µg/mL (≈ 265 µM)

## COc1cc2c3cc1Oc1c(O)c(OC)cc4c1[C@H](Cc1ccc(OC)c(c1)-c1cc(ccc1O)C[C@H]3N(C)CC2)N(C)CC4 [ANTIOQUINE]
[1]; [11]
  IC50: 460 µg/mL (≈ 756 µM)
[2]; [12]
  IC50: 548 µg/mL (≈ 901 µM)
[3]
  IC50: 4.06 µg/mL (≈ 6.67 µM)

## COc1ccc2cc3[n+](cc2c1OC)CCc1cc2c(cc1-3)OCO2.[Cl-] [BERBERINE CHLORIDE]
[1]; hepg2
  IC50: 146 µg/mL
[2]; hela
  IC50: 138 µg/mL
[3]
  IC50: 26.5 µg/mL

## COc1ccc2c(c1OC)CN1CCc3cc4c(cc3[C@@H]1C2)OCO4 [CANADINE]
[4]
  Activity: >80%
[5]
  Activity: Non-toxic
[6]
  Activity: >95%
[7]
  Activity: Not toxic
[8]
  Activity: >80%
[9]
  Activity: Not toxic
[10]
  Activity: >95%
